Data from US20210361600A1, “METHODS FOR INDUCING CHONDROGENESIS” (THE SCRIPPS RESEARCH INSTITUTE, priority 2017, published 2021).
Values joined by “and” are separate entries in the source; they are usually repeats but may differ in a detail not shown here. Identical values can stand only once. “Also recorded” adds a separate entry of the source. Like-named read-outs stand apart in the source and are kept apart here.

How the values were obtained:
[1] = tested on: Canine Model of Osteoarthritis; assay: Efficacy of compound A in a canine model of osteoarthritis; format: in vivo, Beagle dogs
Protocol: The clear solution was then filtered in a 0.45 μm filter prior to intraarticular dose. Dosing solution was prepared fresh on the day of dosing.
Twelve to fifteen-month-old female naïve Beagle dogs were obtained from Marshall BioResouces (North Rose, N.Y.) with a weight range of 5.4 to 9.3 kilograms.
The goal was to sort and ensure that behavioral characteristics were shared among all groups, so that the activity level and use of the joints while not in regimented exercise would be uniform between groups. In addition to sorting by temperament, animals were also sorted by body weights, with equal distribution between study groups. Animals were acclimated to an exercise regimen of 1 hour of walking/running/playing prior to study start.
Animals were food deprived prior to surgery, anesthetized using propofol (6 mg/kg, IV), and maintained on isoflurane (3-4%) in oxygen (2 L/min) for the duration of the procedure (10-15 minutes). The right rear knee was shaved and aseptically prepared. A medial skin incision was made to expose the collateral ligament. A portion of the medial meniscus was cut (a wedge roughly half the width of the medial meniscus was removed). The joint capsule and subcutis were closed with sutures, and skin closed with wound clips. Sham animals were treated in the same manner except for the medial meniscus partial transection. All animals were allowed to recover for 10-11 days prior to dosing. Three days after surgery, all animals began an exercise regimen of one hour of continuous exercise (walking/running/playing), to ensure that the animals were using the surgerized leg and to allow for a more uniform development of lesions across a group of differently tempered dogs.
(§1) All animals were exercised 5 days a week for an hour for the duration of the study. At study day 10/11, animals began receiving weekly injections of either compound or vehicle into the surgerized joint. Blood samples were also taken pre-dose for all animals for compound determination. Animals received doses at day 10, 17, 24, 31, 38, and 45 post surgery. All intraarticular doses were standardized to 0.5 mL injections into the joint capsule via injection through the patellar ligament.
On day 52, animals received a terminal blood sample and were euthanized. Plasma samples were used for biomarker determination. Urine and synovial fluid was collected at necropsy, and the knees were harvested for histology and pathology analysis.
Osteoarthritic lesions were scored based on lesion size, depth, severity and changes in subchondral bone and osteophyte formation. Both the femur and the tibia on either side of the meniscal cut were examined. Statistical analysis used Student's two-tailed test or Mann-Whitney U Test (non-parametric).
For terminal plasma samples, biomarker ELISAs were run to quantify levels of PIINP. The kit procedures were followed as per manufacturer's instructions. Data were analyzed with a Student's t-test.

CBFβ = CBFβ nuclear localization in hMSCs (Western blotting); format: cell-based, human; settings: hMSCs, 1, 10 and 100 nM, 1 hour
Protocol: Primary human MSCs were obtained from Cell Applications. The hMSCs were grown in Mesenchymal Stem Cell expansion media and used between passage 2 and 8 for all experiments. Nuclear cell lysate fractionation and western blotting
The cells were scraped off the dishes mechanically, and pipetted gently to break the cell debris. The cell lysate was centrifuged at 2000 rpm at 4° C. for 5 min and the supernatant was saved as the cytosolic fraction. The pellet was washed with washing buffer (20 mM HEPES, pH 7.9, 20% glycerol, 0.2 mM EDTA, 1 mM DTT and protease inhibitor cocktail) once and centrifuged at 2000 rpm for 5 min. The supernatant was discarded, the pellets were suspended in nuclear extraction buffer (2 mM HEPES, pH7.9, 400 mM NaCl, 20% glycerol, 0.2 mM EDTA, 1 mM DTT and protease inhibitor cocktail) and then incubated on ice for 45 min. The mixture was centrifuged at 13,000 rpm for 15 min at 4° C., and the supernatant was saved as nuclear fraction.
Proteins were resolved using SDS-PAGE gel electrophoresis, transferred to a PVDF membrane using semi-dry blotting cell. The membrane was blocked in blocking buffer (LiCor) for 1 hr at room temperature, followed by incubation with primary antibody in blocking buffer at 4° C. overnight. […]

[2] = Intra-articular acute toxicity study in Crl:CD(SD) rat (toxicokinetics); settings: for Tlast: male rats, median
[3] = dog, in vivo
[4] = Intravenous acute toxicity study in Crl:CD(SD) rat (toxicokinetics); format: in vivo; settings: for AUC(0-t) / Cmax / half-life: Crl:CD(SD), rat, plasma; for Tlast: median
Protocol: For toxicokinetic evaluation, an additional 3 rats/sex/group were added for the 1 or 2.4 mg/kg dose groups. Toxicokinetic parameters were determined, where feasible, by non-compartmental analysis.

in vivo [5] = assay: in vivo; design: species or system Crl:CD(SD) rat; settings: rat; for half-life: t1/2
[6] = Final dose PK in the canine osteoarthritis study; format: in vivo, Beagle dogs
Protocol: Acetonitrile, water (Optima, LC/MS Grade) and formic acid, 99+% (Optima, LC/MS Grade) were purchased from Fisher Scientific. […] Chromatography HPLC column, Luna, 5 um C18 (2), 50×2.0 mm and its guard security cartridge and holder were purchased from Phenomenex. HPLC (1100 Series) was purchased from Agilent. The Mass Spectrometer system, API 3000 was purchased from SCIEX. Separation was performed on a reversed phase C18 column with a gradient elution using mobile phases of 0.1% formic acid in water (A) and 0.1% formic acid in acetonitrile (B) with flow rate at 0.6 mL/min.
Supernatant was then diluted with 0.1% formic acid in water solvent and injected onto LC-MS-MS system.
as §1
Female Beagles underwent medial meniscal tear surgery to induce osteoarthritis.

in vivo [7] = settings: dog, iv; for AUC(0-t): AUC0-t
FLNA FC-1 fragment = assay: In vitro FLNA binding (competition with biotin-KGN-azide probe); settings: 25 μM compound A, 0.5 μM BKA, FC-1 fragment 10 μg/mL, 1 hr
From the text: The biological mechanism of kartogenin (KGN) was elucidated through synthesis of a biotin-kartogenin-azide (BKA) affinity probe which was used as a tool to identify the subsequent interaction with FLNA.

[8] = 0.035 mg/knee IA weekly for 6 weeks, vs vehicle
[9] = dose increment of 5.7 fold (from 2.1 to 12 μg)
[10] = male, Crl:CD(SD), rat, plasma, 12 ug
[11] = female rats, single IV 1 mg/kg, mean
[12] = female rats, single IV 2.4 mg/kg, mean
[13] = male rats, single IV 1 mg/kg, mean
[14] = male rats, single IV 2.4 mg/kg, mean
[15] = female, Crl:CD(SD), iv, 0.25 mg/kg
[16] = female, Crl:CD(SD), iv, 0.75 mg/kg
[17] = female, Crl:CD(SD), iv, 2.5 mg/kg
[18] = male, Crl:CD(SD), iv, 0.25 mg/kg
[19] = male, Crl:CD(SD), iv, 0.75 mg/kg
[20] = male, Crl:CD(SD), iv, 2.5 mg/kg
[21] = female Beagles, 35 μg IA weekly, after 6th dose, plasma, individual animals 1-6

## COCCc1ccc(NC(=O)c2ccccc2NS(C)(=O)=O)cc1 [Compound A, N-(4-(2-methoxyethyl)phenyl)-2-(methylsulfonamido)benzamide]
[1]; [8]
  degree of substantial cartilage degeneration in the femur: significantly improved; also recorded: significant reduction
  level of bone sclerosis: reduced; also recorded: improved
  width of total cartilage degeneration (all severities), femur: no effect
[1]; effect not statistically significant
  tibial cartilage damage: less severe
[1]; terminal samples 1 week post final dose, vs vehicle
  circulating PIINP in plasma (ELISA): significantly elevated
CBFβ
  CBFβ levels in the nuclear fraction: increase
[2]; [9]
  increase in mean AUC0-t: 2 fold
  increase in mean Cmax: 2 fold
[2]; single IA dose 2.1 μg/knee, plasma
  Tlast: 2.00 h
[2]; single IA dose 12 μg/knee, plasma
  Tlast: 2.00 h
[2]; male, Crl:CD(SD), rat, plasma, 2.1 ug
  AUC(0-t): 12.1 ng·h/mL
[2]; [10]
  AUC(0-t): 23.9 ng·h/mL
  Cmax: 27.8 ng/mL
[3]; both, beagle, iv, 1.25 mg/kg
  time up to which quantifiable in the plasma of all animals: at least 12 hours
[3]
  gender differences in systemic exposure (Cmax and AUC0-t): no significant gender differences
[3]; iv
  differences in systemic exposure following single and repeat weekly IV administration: no significant differences
[3]; female, Beagle, iv, 0.125 mg/kg
  Cmax: 209 ng/mL
[3]; female, Beagle, iv, 0.6 mg/kg
  Cmax: 1190 ng/mL
[3]; female, Beagle, iv, 1.25 mg/kg
  AUC(0-t): 2300 ng·h/mL
  Cmax: 2480 ng/mL
[3]; male, beagle, iv, 0.125 mg/kg
  AUC(0-t): 211 ng·h/mL
  Cmax: 197 ng/mL
[3]; male, beagle, iv, 0.6 mg/kg
  AUC(0-t): 1400 ng·h/mL
  Cmax: 1140 ng/mL
[3]; male, beagle, iv, 1.25 mg/kg
  AUC(0-t): 2510 ng·h/mL
  Cmax: 2150 ng/mL
[4]; [11]
  AUC(0-t): 2900 ng·h/mL
  Cmax: 9190 ng/mL
  half-life: 28.8 min
[4]; [12]
  Cmax: 9020 ng/mL
  half-life: 31.8 min
[4]; female rats, single IV 2.4 mg/kg, mean, t = 4 hours
  AUC(0-t): 5690 ng·h/mL
[4]; [13]
  AUC(0-t): 2500 ng·h/mL
  Cmax: 11200 ng/mL
  half-life: 22.2 min
[4]; [14]
  AUC(0-t): 4510 ng·h/mL
  Cmax: 9430 ng/mL
  half-life: 24 min
[4]; both sexes, single IV administration, range over groups
  half-life: 18 to 36 min
[4]; female rats, single IV 1 mg/kg
  Tlast: 2 h
[4]; female rats, single IV 2.4 mg/kg
  Tlast: 4 h
[4]; females, single IV
  mean AUC0-t, higher dose compared to 1 mg/kg: ~2.0 fold
[4]; male rats, single IV 1 mg/kg
  Tlast: 2 h
[4]; male rats, single IV 2.4 mg/kg
  Tlast: 2 h
[4]; males, single IV
  mean AUC0-t, higher dose compared to 1 mg/kg: approximately 1.8 fold
[4]; single IV, either dosing regimen
  gender differences in systemic exposure (Cmax and AUC0-t): no notable gender differences
In vivo [5]; both, Crl:CD(SD), iv
  time up to which quantifiable in the plasma of all animals: at least 4 hours
In vivo [5]; [15]
  AUC(0-t): 764 ng·h/mL
  Cmax: 1380 ng/mL
  t1/2: 32.4 min
  half-life: 34.8 min
In vivo [5]; female, Crl:CD(SD), iv, 0.25 mg/kg, AUC0-t
  AUC(0-t): 871 ng·h/mL
In vivo [5]; female, Crl:CD(SD), iv, 0.25 mg/kg, Cmax
  Cmax: 1230 ng/mL
In vivo [5]; [16]
  AUC(0-t): 1920 ng·h/mL
  Cmax: 4800 ng/mL
  t1/2: 28.8 min
  half-life: 35.4 min
In vivo [5]; female, Crl:CD(SD), iv, 0.75 mg/kg, AUC0-t
  AUC(0-t): 2250 ng·h/mL
In vivo [5]; female, Crl:CD(SD), iv, 0.75 mg/kg, Cmax
  Cmax: 3490 ng/mL
In vivo [5]; [17]
  t1/2: 43.8 min
  half-life: 37.8 min
In vivo [5]; [18]
  AUC(0-t): 633 ng·h/mL
  Cmax: 2060 ng/mL
  t1/2: 25.2 min
  half-life: 23.4 min
In vivo [5]; male, Crl:CD(SD), iv, 0.25 mg/kg, AUC0-t
  AUC(0-t): 657 ng·h/mL
In vivo [5]; male, Crl:CD(SD), iv, 0.25 mg/kg, Cmax
  Cmax: 1940 ng/mL
In vivo [5]; [19]
  AUC(0-t): 2160 ng·h/mL
  t1/2: 25.8 min
  half-life: 37.8 min
In vivo [5]; male, Crl:CD(SD), iv, 0.75 mg/kg, AUC0-t
  AUC(0-t): 3120 ng·h/mL
In vivo [5]; [20]
  t1/2: 42.6 min
  half-life: 38.4 min
In vivo [5]
  gender differences in mean Cmax and mean AUC0-t: no significant gender differences
In vivo [5]; iv
  differences in systemic exposure following single and repeated IV administration: no significant
[6]; 1 hour after IA administration
  plasma exposure after the final dose: undetectable
[6]; female Beagles, 35 μg (0.035 mg/knee) IA weekly, after 6th dose, plasma, individual animals 1-6
  Cmax: 2.22 ng/mL and 2.64 ng/mL and 1.87 ng/mL and 2.26 ng/mL and 1.08 ng/mL and 1.54 ng/mL
[6]; female Beagles, 35 μg IA weekly, after 6th dose, plasma, Mean
  Tlast: 2.3 h
[6]; [21]
  AUC 0-τ: 2.28 ng·h/mL and 3.14 ng·h/mL and 2.12 ng·h/mL and 3.58 ng·h/mL and 1.15 ng·h/mL and 1.87 ng·h/mL
  Tlast: 2.0 h (5×) and 4.0 h
[6]; female, beagle, dog, plasma, 0.035 mg/knee, female Beagles, 35 μg IA weekly, after 6th dose, plasma, Mean, read-out: AUC 0-τ
  AUC: 2.36 ng·h/mL
[6]; female, beagle, dog, plasma, 0.035 mg/knee, female Beagles, 35 μg IA weekly, after 6th dose, plasma, Mean, read-out: Cmax
  Cmax: 1.94 ng/mL
In vivo [7]; both, beagle
  half-life: 38.4 to 55.8 min
In vivo [7]; female, Beagle, 0.125 mg/kg
  AUC(0-t): 131 ng·h/mL
  Cmax: 181 ng/mL
In vivo [7]; female, Beagle, 0.6 mg/kg
  AUC(0-t): 1230 ng·h/mL
  Cmax: 1330 ng/mL
In vivo [7]; female, Beagle, 1.25 mg/kg
  AUC(0-t): 2150 ng·h/mL
  Cmax: 2460 ng/mL
In vivo [7]; female, beagle
  Vd: 0.534 to 0.855 L/kg
  clearance: 8.2 to 16.4 mL/min/kg
In vivo [7]; female, beagle, 0.125 mg/kg
  AUC(0-t): 178 ng·h/mL
In vivo [7]; female, beagle, 0.6 mg/kg
  AUC(0-t): 1200 ng·h/mL
In vivo [7]; male, beagle
  Vd: 0.44 to 0.692 L/kg
  clearance: 7.25 to 11.4 mL/min/kg
In vivo [7]; male, beagle, 0.125 mg/kg
  AUC(0-t): 181 ng·h/mL
  Cmax: 308 ng/mL
In vivo [7]; male, beagle, 0.6 mg/kg
  AUC(0-t): 1190 ng·h/mL
  Cmax: 2100 ng/mL
In vivo [7]; male, beagle, 1.25 mg/kg
  AUC(0-t): 2600 ng·h/mL
  Cmax: 2580 ng/mL
FLNA FC-1 fragment
  ability of the biotin-KGN-azide probe to bind to the FC-1 fragment of FLNA: inhibited
